# Source: PubChem BioAssay (NCI)
#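 Where inhibition never reached the appropriate level, the endpoint shown equals the highest concentration tested. Otherwise, values were interpolated linearly from a five-concentration, 48-hour dose response in 96-well plates. GI50 is the concentration that inhibits growth by half. The concentration for full growth arrest is given as TGI.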
# Assays:
# Assay in all cases: NCI anticancer screen, dose series, 48 h
# [1] = tested on: A498 renal
# [2] = tested on: A549 NSCLC
# [3] = tested on: ACHN renal
# [4] = tested on: DU-145 prostate
# [5] = tested on: EKVX NSCLC
# [6] = tested on: HL-60(TB) leukemia
# [7] = tested on: HOP-92 NSCLC
# [8] = tested on: HS 578T breast
# [9] = tested on: HT29 colon
# [10] = tested on: K-562 leukemia
# [11] = tested on: MDA-MB-435
# [12] = tested on: NCI/ADR-RES ovarian
# [13] = tested on: PC-3 prostate
# [14] = tested on: RPMI-8226 leukemia
# [15] = tested on: SK-MEL-2 melanoma
# [16] = tested on: SK-MEL-28 melanoma
# [17] = tested on: SW-620 colon
# [18] = tested on: 786-0 renal
# [19] = tested on: BT-549 breast
# [20] = tested on: CAKI-1 renal
# [21] = tested on: CCRF-CEM leukemia
# [22] = tested on: HCC-2998 colon
# [23] = tested on: HCT-116 colon
# [24] = tested on: HCT-15 colon
# [25] = tested on: HOP-62 NSCLC
# [26] = tested on: IGROV1 ovarian
# [27] = tested on: KM12 colon
# [28] = tested on: LOX IMVI melanoma
# [29] = tested on: M14 melanoma
# [30] = tested on: MALME-3M melanoma
# [31] = tested on: MDA-MB-231 breast
# [32] = tested on: MOLT-4 leukemia
# [33] = tested on: NCI-H226 lung
# [34] = tested on: NCI-H23 lung
# [35] = tested on: NCI-H460 lung
# [36] = tested on: OVCAR-3 ovarian
# [37] = tested on: OVCAR-4 ovarian
# [38] = tested on: OVCAR-5 ovarian
# [39] = tested on: OVCAR-8 ovarian
# [40] = tested on: RXF 393 renal
# [41] = tested on: SF-268 CNS
# [42] = tested on: SF-295 CNS
# [43] = tested on: SF-539 CNS
# [44] = tested on: SK-MEL-5 melanoma
# [45] = tested on: SK-OV-3 ovarian
# [46] = tested on: SN12C renal
# [47] = tested on: SNB-19 CNS
# [48] = tested on: SNB-75 CNS
# [49] = tested on: SR leukemia
# [50] = tested on: T-47D breast
# [51] = tested on: TK-10 renal
# [52] = tested on: U251 CNS
# [53] = tested on: UACC-257 melanoma
# [54] = tested on: UACC-62 melanoma
# [55] = tested on: UO-31 renal
smiles,measurement,setting,value
CN(C)CCOc1ccc(/C(=C(/CCCCCCCCCC[P+](c2ccccc2)(c2ccccc2)c2ccccc2)c2ccccc2)c2ccccc2)cc1,GI50,[1],0.224 µM
same,TGI,[1],774 nM
same,GI50,[2],77.2 nM
same,TGI,[2],1660 nM
same,GI50,[3],382 nM
same,TGI,[3],1.47 µM
same,GI50,[4],258 nM
same,TGI,[4],1.35 µM
same,GI50,[5],274 nM
same,TGI,[5],1400 nM
same,GI50,[6],57.5 nM
same,TGI,[6],319 nM
same,GI50,[7],29.7 nM
same,TGI,[7],208 nM
same,GI50,[8],318 nM
same,TGI,[8],1790 nM
same,GI50,[9],127 nM
same,TGI,[9],1400 nM
same,GI50,[10],38.9 nM
same,TGI,[10],> 100 µM
same,GI50,[11],223 nM
same,TGI,[11],899 nM
same,GI50,[12],1320 nM
same,TGI,[12],3.78 µM
same,GI50,[13],30.4 nM
same,TGI,[13],184 nM
same,GI50,[14],27.3 nM
same,TGI,[14],0.172 µM
same,GI50,[15],280 nM
same,TGI,[15],864 nM
same,GI50,[16],364 nM
same,TGI,[16],1.79 µM
same,GI50,[17],280 nM
same,TGI,[17],1.32 µM
COc1cc2c(/C=C3/C(=O)Nc4ccc(O)cc43)c(Cl)n(Cc3ccccc3)c2cc1C,TGI,[18],3.28 µM
same,GI50,[1],6.26 µM
same,TGI,[1],> 100000 nM
same,TGI,[2],> 100000 nM
same,TGI,[3],35.3 µM
same,GI50,[19],4.67 µM
same,TGI,[19],24.6 µM
same,TGI,[20],19.2 µM
same,TGI,[21],> 100 µM
same,TGI,[4],26 µM
same,TGI,[5],> 100000 nM
same,GI50,[22],201 nM
same,TGI,[22],799 nM
same,TGI,[23],1910 nM
same,TGI,[24],> 22.6 µM
same,GI50,[25],403 nM
same,TGI,[25],9.39 µM
same,TGI,[7],> 78300 nM
same,TGI,[8],3360 nM
same,TGI,[9],3960 nM
same,TGI,[26],16.8 µM
same,TGI,[10],> 100 µM
same,TGI,[27],1350 nM
same,TGI,[28],24.9 µM
same,TGI,[29],11.8 µM
same,TGI,[30],629 nM
same,TGI,[31],42 µM
same,TGI,[32],> 100 µM
same,TGI,[33],15.5 µM
same,TGI,[34],3.89 µM
same,TGI,[35],> 43.4 µM
same,TGI,[12],2.6 µM
same,TGI,[36],704 nM
same,TGI,[37],> 100 µM
same,TGI,[38],14.5 µM
same,TGI,[39],12.2 µM
same,TGI,[13],> 87100 nM
same,TGI,[14],6.74 µM
same,TGI,[40],5.06 µM
same,TGI,[41],24.9 µM
same,TGI,[42],3.91 µM
same,TGI,[43],3.8 µM
same,TGI,[15],> 100000 nM
same,TGI,[16],44.1 µM
same,TGI,[44],2460 nM
same,TGI,[45],> 60.2 µM
same,TGI,[46],> 45.3 µM
same,TGI,[47],18.3 µM
same,TGI,[48],> 100 µM
same,TGI,[49],3.35 µM
same,TGI,[17],19.9 µM
same,TGI,[50],> 74.8 µM
same,TGI,[51],> 40.7 µM
same,TGI,[52],> 42.4 µM
same,TGI,[53],> 56.5 µM
same,TGI,[54],> 41.9 µM
same,TGI,[55],> 100 µM
